This is an account of results in article PMC9739815, “Akt/mTOR Targeting Activity of Resveratrol Derivatives in Non-Small Lung Cancer” (Molecules, 2022).

For data set [1], the system named is A549 cells. Description: MTT cell viability assay, A549 cells. The settings on record: Homo sapiens, 24 h, 0–200 µM, read-out: IC50 ± SEM of NSCLC cells, A549. It is filed as cell-based. As to the method:
(§1) NSCLC cells were cultured overnight and treated with various concentrations (0–200 µM) of resveratrol derivatives (RD1-RD5) and resveratrol for 24 h, and then cell viability was analyzed by the 3-(4, 5-dimethylthiazolyl-2)-2, 5-diphenyltetrazolium bromide (MTT) assay to evaluate the percentage of cell viability. All of the data were calculated on the basis of the results of three replicated samples. […] The difference of the structure at C-4 was that the hydroxyl group of RD2 was modified to the methoxy group of RD3 and at C-3, the methoxy group of RD2 was changed to the hydroxyl group of RD3. […] Furthermore, resveratrol decreased cell viability in NSCLC cells (A549, H23, and H460) with the IC50 at more than 200 µM which was the same RD3 (Figure 2a–d). This different action on cancer cells as a result of chemical structure modification has provided an insight for the structure–activity relationship that may facilitate the further development of the potent compound from the lead structure of resveratrol derivatives. Cell viability was investigated by MTT colorimetric assay. All cell lines were cultured at the density of 1 × 10^4 cells per well in a 96-well tissue culture plate and incubated in an incubator. After that, cells were treated with various concentrations of RD1-RD5 for 24 h at 37 °C and analyzed by the MTT assay according to the manufacturer’s protocol (Sigma Chemical, St. Louis, MO, USA). In calculating the cell viability by a microplate reader (Anthros, Durham, NC, USA), the measured absorbance of treated cells were divided by the value of untreated cells and are reported as a percentage.

In the next data set the test system is H460 cells. Nature of the data set: MTT cell viability assay, H460 cells. It is filed as cell-based. Particulars: Homo sapiens, NCI-H460, 24 h, 0–200 µM, read-out: IC50 ± SEM of NSCLC cells, H460. On the procedure: as §1
In general terms: Formazan colour is commonly taken as a measure of viable cells.

In the next data set the test system is DP cells. Nature of the data set: MTT cell viability assay, normal dermal papilla (DP) cells. In kind it is cell-based. Particulars: 24 h; for effect on cell viability percentages in DP cells: normal human dermal papilla cells; for IC50: Human dermal papilla cell, 0–200 µM, read-out: IC50 ± SEM of DP cells. As to the method:
To confirm the selective cytotoxicity of resveratrol derivatives (RD2 and RD3) in cancer cells, resveratrol derivatives (RD2 and RD3) and resveratrol were determined for the cytotoxic profile in normal human cells, dermal papilla (DP).
Cell viability was investigated by MTT colorimetric assay. All cell lines were cultured at the density of 1 × 10^4 cells per well in a 96-well tissue culture plate and incubated in an incubator. After that, cells were treated with various concentrations of RD1-RD5 for 24 h at 37 °C and analyzed by the MTT assay according to the manufacturer’s protocol (Sigma Chemical, St. Louis, MO, USA). In calculating the cell viability by a microplate reader (Anthros, Durham, NC, USA), the measured absorbance of treated cells were divided by the value of untreated cells and are reported as a percentage.

The subject of data set [2] is A549 cells. Description: Colony formation assay, A549 cells. In kind it is cell-based, human. The settings on record: for reduction of number of forming colonies: 24 h treatment, 7 days; for reduction of number of forming colonies / decrease of colony size: vs control. As to the method:
Colony formation assay was used to confirm the anti-cancer action of resveratrol derivatives, as it is a cell proliferation assay which can detect the ability of a single cell to grow into a colony. NSCLC cells were seeded and treated with RD2 and RD3 (1–200 μM) for 24 h. The treated cells were subjected to colony formation assay for 7 days. The crystal violet-staining colony represented the colony suppression effect of RD2 and RD3 compared to the untreated control (Figure 3a,b). The RD2 compound dramatically abolished the forming colony. Colony number was absent in response to RD2 at the concentrations of 100 and 200 μM, whereas there was no significant response to RD3 (Figure 3a,b).
Cells were seeded at a density of 300 cells/well into 6-well plate and then further treated with various concentrations resveratrol derivatives for 24 h after that the medium was replaced and the cell were incubated for colony number and colony size were investigated after fixing with methanol and acetic acid (3:1) solution and staining with 0.05% w/v crystal violet in 4% formaldehyde.

The test system of data set [3] is A549 cells. Description: Hoechst 33342/PI nuclear staining apoptosis assay, A549 cells. In kind it is cell-based, human. The settings on record: 24 h. On the procedure:
Apoptosis is considered as an important mechanism of action of anti-cancer drugs. The important characteristics of apoptotic cells include the nuclear morphological changes, chromatin condensation, and DNA fragmentation. Hoechst 33342 and propidium iodide (PI) double staining was utilized to determine the mode of cell death by monitoring the nucleus morphology of apoptotic cells as well as their membrane integrity. Cells were seeded in a 96-well plate at the density of 1 × 10^4 cells/well and treated with various concentrations of RD2 and RD3 (10–200 μM) for 24 h. The cells were co-stained with Hoechst 33342 and PI. […] The red fluorescence of PI indicated a late apoptosis cell and necrotic cells.
This method was applied to define apoptotic and necrotic cell death by using nuclear staining with Hoechst 33342. The cells were seeded on 96-well plates at the density 1 × 10^4 cells per well in 96-well plates and incubated overnight. The cells were treated with various concentrations of RD1-RD5 and incubated for 24 h at 37 °C. Afterward, the cells were incubated with Hoechst 33342 (10 μg/mL) / PI (5 μg/mL) solution for 30 min at 37 °C. Then, they were visualized and imaged under a fluorescence microscope (Olympus DP70, Melville, NY, USA). Results are reported as a percentage of apoptotic cells.

The next data set has as its system p-mTOR in A549 cells. Nature of the data set: Immunofluorescence staining of p-mTOR, A549 cells. Particulars: 12 h, RD2 effect at 50–100 μM. It is filed as cell-based, human. As to the method: (§2) NSCLC cells (A549 and H23) were treated with RD2 and RD3 (10–100 μM) for 12 h. After which, all cells were collected and the expression levels of Akt, p-Akt, mTOR, and p-mTOR were investigated by Western blot analysis (Figure 5a, Figure 6a, Figure 7a and Figure 8a). […] Immunofluorescence staining of Akt, p-Akt, mTOR, and p-mTOR was performed in RD2 and RD3 treated cells. The results further confirm the effect of RD2 and RD3 on the Akt/mTOR pathway.
(§3) Cells were seeded at a density of 1 × 10^4 cells/well in 6-well plates overnight. Cells were treated with various concentrations resveratrol derivatives ([…]) and were treated for 12 h. Then, they were fixed with 4% paraformaldehyde in PBS for 15 min, permeabilized for 5 min with 0.5% Triton-X, and blocked with 0.1% Triton-X in 10% FBD in PBS for 1 h at room temperature. Cells were added to the primary antibody Akt (#9272), phosphorylated Akt (#4060), mTOR (#2983S), and p-mTOR (#5536S). Then, they were incubated at 4 °C overnight. After that, they were incubated with secondary antibody for 1 h and stained with Hoechst 33342 for 30 min at room temperature in a dark place. The images were visualized under a fluorescent microscope (Olympus DP70, Melville, NY, USA) and analyzed by The ImageJ software.

The subject of the next data set is p-mTOR in H23 cells. Nature of the data set: Immunofluorescence staining of p-mTOR, H23 cells. It is filed as cell-based, human. The settings on record: 12 h, RD2 effect at 50–100 μM. As to the method:
as §2, §3

By IC50 is commonly meant the concentration needed to halve the response being measured. `COc1cc(CCc2ccc(O)c(OC)c2)ccc1O` [RD2, 4,4′-(ethane-1,2-diyl)bis(2-methoxyphenol)]: the figures for the IC50 with A549 cells [1], in the data set with H460 cells and with DP cells were 109 ± 10.8 µM, 138 ± 25.6 µM and greater than 200 µM, respectively. In addition, the “effect on cell viability percentages in DP cells” value in the data set with DP cells was “did not significantly affect”. In addition, the results for the “reduction of number of forming colonies” value in the data set with A549 cells [2] (10 μM), with A549 cells [2] (100 μM) and in the data set with A549 cells [2] (200 μM) were 31.04%, 98.18% and 99.40%, respectively. The figures for the “decrease of colony size” value with A549 cells [2] (100 μM) and in the data set with A549 cells [2] (200 μM) were 71.66% and 85.42%, respectively. In addition, the apoptotic ratio with A549 cells [3] (10 μM) came out at 23.25%; with A549 cells [3] (100 μM) it was 61.26%; with A549 cells [3] (200 μM), 86.30%. Besides, the p-mTOR signal intensity entry with p-mTOR in A549 cells and in the data set on p-mTOR in H23 cells was “dramatic decrease” in each case.

As to `COc1ccc(CCc2ccc(O)c(OC)c2)cc1O` [RD3, 4-(3-hydroxy-4-methoxyphenethyl)-2-methoxyphenol], the IC50 in the data set on A549 cells [1], with H460 cells and in the data set with DP cells was greater than 200 µM in each case. The “effect on cell viability percentages in DP cells” value in the data set with DP cells is recorded as “did not significantly affect”. Besides, the “reduction of number of forming colonies” value in the data set with A549 cells [2] (10 μM) is 20.44%; in the data set on A549 cells [2] (100 μM), 21.94%; in the data set on A549 cells [2] (200 μM), 38.91%. Moreover, the “effect on colony size” value in the data set on A549 cells [2] (10–200 μM) is recorded as “no significant effect”. The apoptotic ratio with A549 cells [3] (200 μM) turned out to be 13.25%. Moreover, the p-mTOR signal intensity result in the data set on p-mTOR in A549 cells and with p-mTOR in H23 cells was “only minimally affected” throughout.
